In patent US5389644A, “1,4-dihydropyridine compounds” (priority 1992, dated 1995):

How the values were obtained:
[1] = tested on: KB-A1; experiment: Cytotoxicity: reversal of resistance to adriamycin (reversion factor), line KB-A1; type: cell-based, Human
Method: (§1) The parameter measured is the cytotoxicity of the antitumour drug, quantified in the absence and in the presence of the reversing compound. […] The compounds tested for their capacity to reverse the resistance are added at the same time as the cytotoxic agent. The cells are then incubated for 4 days.

[2] = tested on: DC-3F/AD; experiment: Cytotoxicity: reversal of resistance to actinomycin D (reversion factor), line DC-3F/AD; type: cell-based, Chinese hamster
Method: as §1, with “compound. Two resistant cell lines were used: 1 Chinese hamster lung line, DC-3F/AD, the resistance of which was induced by actinomycin D.” for “compound.”

[3] = tested on: KB-A1; experiment: Flow cytometry: intracellular accumulation of ADR, line KB-A1; type: cell-based, Human; details: ADR 50 μM, 5 hours
Method: Also measured was the effect of the compounds on the intracellular concentration of adriamycin. […] By measuring that fluorescence, it is thus possible to obtain a relative measurement of the intracellular concentration of ADR. […] The cells (5×10^5 per ml) were exposed simultaneously to ADR at a fixed concentration (50 μM) and to the tested compounds at various concentrations. After 5 hours' incubation, the intracellular accumulation of ADR was evaluated by FCM. […] The results were presented in the form of linear histograms of the intracellular ADR fluorescence. Expression of the results: for each of the histograms the mean fluorescence per channel (MEAN) was determined by the computer of the apparatus. For all experiments: a negative control (cells without ADR) fixed the autofluorescence threshold. a positive control (cells with ADR) determined the MEAN value=MN1. the "test" tubes (cells with ADR and with compound) were used to determine, for each of the compounds and at each of the concentrations, the MEAN values=MN2. The results are expressed in the form of variations from the mean fluorescence obtained for each of the "test" tubes (MN2) in relation to the mean fluorescence obtained with the positive control (MN1): VAR-MEAN=MN2-MN1. The measured parameter is thus the increase in ADR fluorescence in the presence of the tested compounds.

| SMILES | reversion factor (RF) ([1]; compound 1 μM) | reversion factor (RF) ([1]; compound 5 μM) | reversion factor (RF) ([2]; compound 1 μM) | reversion factor (RF) ([2]; compound 5 μM) | increase in the ADR fluorescence (VAR-MEAN) ([3]; compound 1 μM) | increase in the ADR fluorescence (VAR-MEAN) ([3]; compound 5 μM) | increase in the ADR fluorescence (VAR-MEAN) ([3]; compound […]) |
| --- | --- | --- | --- | --- | --- | --- | --- |
| CCOC(=O)C1=C(COCCOCCNCc2cccc([N+](=O)[O-])c2)NC(C)=C(C(=O)OC)C1c1cccc(Cl)c1Cl (stereo not drawn) [Example 2, d-2-{[2-(2-(N-m-nitrobenzylamino)ethoxy)ethoxy]methyl}-4-(2,3-dichlorophenyl)-3-ethoxycarbonyl-5-methoxycarbonyl-6-methyl-1,4-dihydropyridine] | 2.2 | 389.5 | 1.5 | 1,478.2 |  |  |  |
| CCOC(=O)C1=C(COCCOCCNCc2cccc(F)c2)NC(C)=C(C(=O)OC)C1c1cccc(Cl)c1Cl (stereo not drawn) [Example 5, d-2-{[2-(2-(N-m-fluorobenzylamino)ethoxy)ethoxy]methyl}-4-(2,3-dichlorophenyl)-3-ethoxycarbonyl-5-methoxycarbonyl-6-methyl-1,4-dihydropyridine] | 13.2 | 225.8 | 7.6 | 3,567.0 |  |  |  |
| CCOC(=O)C1=C(COCCOCCNCc2ccccc2F)NC(C)=C(C(=O)OC)C1c1cccc(Cl)c1Cl (stereo not drawn) [Example 6, d-2-{[2-(2-(N-o-fluorobenzylamino)ethoxy)ethoxy]methyl}-4-(2,3-dichlorophenyl)-3-ethoxycarbonyl-5-methoxycarbonyl-6-methyl-1,4-dihydropyridine] | 15.2 | 159.1 | 9.6 | 4,340.9 |  |  |  |
| CCOC(=O)C1=C(COCCOCCNCc2ccc(SC)cc2)NC(C)=C(C(=O)OC)C1c1cccc(Cl)c1Cl (stereo not drawn) [Example 9, d-2-{[2-(2-(N-p-methylthiobenzylamino)ethoxy)ethoxy]methyl}-4-(2,3-dichlorophenyl)-3-ethoxycarbonyl-5-methoxycarbonyl-6-methyl-1,4-dihydropyridine] | 2.4 | 99.0 | 1.2 | 560.3 |  |  |  |
| CCOC(=O)C1=C(COCCOCCNCc2cccs2)NC(C)=C(C(=O)OC)C1c1cccc(Cl)c1Cl (stereo not drawn) [Example 13, d-2-{[2-(2-(N-thien-2-ylmethylamino)ethoxy)ethoxy]methyl)-4-(2,3-dichlorophenyl)-3-ethoxycarbonyl-5-methoxycarbonyl-6-methyl-1,4-dihydropyridine] | 12.3 | 165.1 | 19.4 | 4,141.7 |  |  |  |
| COC(=O)C1=C(C)NC(C)=C(C(=O)OC)C1c1ccccc1[N+](=O)[O-] [NIFEDIPINE, nifedipine, reference compound] |  |  |  |  | 0.0 | 0.0 | 0.0 |
